Data reported in PubChem BioAssay (NCI).
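48-hour exposure; five concentrations; linearly interpolated endpoints. GI50 is the concentration that inhibits growth by half. TGI: concentration producing complete growth inhibition.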

How the values were obtained:
Test in all cases: inhibition of tumour cell growth, NCI panel, 48 h
[1] = tested on: PC-3 prostate
[2] = tested on: U251 CNS
[3] = tested on: UACC-257 melanoma
[4] = tested on: NCI-H226 lung
[5] = tested on: HCT-15 colon
[6] = tested on: HCC-2998 colon
[7] = tested on: UACC-62 melanoma
[8] = tested on: RPMI-8226 leukemia
[9] = tested on: MCF7 breast
[10] = tested on: SN12C renal
[11] = tested on: IGROV1 ovarian
[12] = tested on: NCI-H23 lung
[13] = tested on: TK-10 renal
[14] = tested on: OVCAR-8 ovarian
[15] = tested on: SNB-19 CNS
[16] = tested on: OVCAR-3 ovarian
[17] = tested on: UO-31 renal
[18] = tested on: SK-OV-3 ovarian
[19] = tested on: MDA-MB-435
[20] = tested on: SNB-75 CNS
[21] = tested on: M14 melanoma
[22] = tested on: SF-295 CNS
[23] = tested on: RXF 393 renal
[24] = tested on: MALME-3M melanoma
[25] = tested on: KM12 colon
[26] = tested on: EKVX NSCLC
[27] = tested on: DU-145 prostate
[28] = tested on: HS 578T breast
[29] = tested on: NCI/ADR-RES ovarian
[30] = tested on: OVCAR-5 ovarian
[31] = tested on: SK-MEL-2 melanoma
[32] = tested on: MDA-MB-231 breast
[33] = tested on: BT-549 breast
[34] = tested on: ACHN renal
[35] = tested on: SK-MEL-28 melanoma
[36] = tested on: CAKI-1 renal
[37] = tested on: A549 NSCLC
[38] = tested on: CCRF-CEM leukemia
[39] = tested on: HT29 colon
[40] = tested on: A498 renal
[41] = tested on: NCI-H522 lung
[42] = tested on: HCT-116 colon
[43] = tested on: NCI-H460 lung
[44] = tested on: SK-MEL-5 melanoma
[45] = tested on: COLO 205 colon
[46] = tested on: 786-0 renal
[47] = tested on: SF-539 CNS
[48] = tested on: SF-268 CNS
[49] = tested on: T-47D breast
[50] = tested on: HOP-92 NSCLC
[51] = tested on: OVCAR-4 ovarian
[52] = tested on: SW-620 colon
[53] = tested on: LOX IMVI melanoma

SMILES: Cc1ccc(S(=O)(=O)Oc2nc3nc4ccccc4nc3nc2OS(=O)(=O)c2ccc(C)cc2)cc1
- TGI [1]: > 100 µM
- TGI [2]: > 100 µM
- TGI [3]: > 100 µM
- TGI [4]: > 100 µM
- TGI [5]: > 100 µM
- TGI [6]: > 100 µM
- TGI [7]: > 100 µM
- TGI [8]: > 100 µM
- TGI [9]: > 100 µM
- TGI [10]: > 100 µM
- TGI [11]: > 100 µM
- TGI [12]: > 100 µM
- TGI [13]: > 100 µM
- TGI [14]: > 100 µM
- TGI [15]: > 100 µM
- TGI [16]: > 100 µM
- TGI [17]: > 100 µM
- TGI [18]: > 100 µM
- TGI [19]: > 100 µM
- TGI [20]: > 100 µM
- TGI [21]: > 100 µM
- TGI [22]: > 100 µM
- TGI [23]: > 100 µM
- TGI [24]: > 100 µM
- TGI [25]: > 100 µM
- TGI [26]: > 100 µM
- TGI [27]: > 100 µM
- TGI [28]: > 100 µM
- TGI [29]: > 100 µM
- TGI [30]: > 100 µM
- TGI [31]: > 100 µM
- TGI [32]: > 100 µM
- TGI [33]: > 100 µM
- TGI [34]: > 100 µM
- TGI [35]: > 100 µM
- TGI [36]: > 100 µM
- TGI [37]: > 100 µM
- TGI [38]: > 100 µM
- TGI [39]: > 100 µM
- TGI [40]: > 100 µM
- TGI [41]: > 100 µM
- TGI [42]: > 100 µM
- TGI [43]: > 100 µM
- TGI [44]: > 100 µM
- TGI [45]: > 100 µM
- TGI [46]: > 100 µM
- TGI [47]: > 100 µM
- TGI [48]: > 100 µM

SMILES: Cc1cc(N)cc(C)c1-c1c(Br)cc(N)cc1Br
- GI50 [1]: 4.17 µM
- TGI [1]: 69.1 µM
- GI50 [2]: 4.54 µM
- TGI [2]: 17.9 µM
- GI50 [3]: 14.3 µM
- TGI [3]: 51.8 µM
- GI50 [4]: 9.43 µM
- TGI [4]: > 100 µM
- GI50 [5]: 4.77 µM
- TGI [5]: > 100 µM
- GI50 [6]: 3.42 µM
- TGI [6]: 16.6 µM
- GI50 [7]: 3.52 µM
- TGI [7]: 24 µM
- GI50 [8]: 3.04 µM
- TGI [8]: 10.4 µM
- GI50 [9]: 4.54 µM
- TGI [9]: > 100 µM
- GI50 [49]: 4.11 µM
- TGI [49]: 20.3 µM
- GI50 [50]: 2.01 µM
- TGI [50]: 9.32 µM
- GI50 [10]: 6.05 µM
- TGI [10]: 73.2 µM
- GI50 [11]: 4.32 µM
- TGI [11]: > 100 µM
- GI50 [12]: 3.52 µM
- TGI [12]: 19 µM
- GI50 [13]: 5.67 µM
- TGI [13]: 37.7 µM
- GI50 [14]: 4.41 µM
- TGI [14]: 28.6 µM
- GI50 [15]: 5.3 µM
- TGI [15]: > 100 µM
- GI50 [16]: 2.63 µM
- TGI [16]: 6.3 µM
- GI50 [17]: 9.11 µM
- TGI [17]: 46 µM
- GI50 [18]: 3.62 µM
- TGI [18]: 12.2 µM
- GI50 [19]: 1.78 µM
- TGI [19]: 11.2 µM
- GI50 [20]: 2.29 µM
- TGI [20]: 16.2 µM
- GI50 [21]: 2.65 µM
- TGI [21]: 8.76 µM
- GI50 [22]: 2.76 µM
- TGI [22]: 12.1 µM
- GI50 [23]: 2.57 µM
- TGI [23]: 6.91 µM
- GI50 [24]: 10.5 µM
- TGI [24]: 54.3 µM
- GI50 [25]: 3.75 µM
- TGI [25]: 17.3 µM
- GI50 [51]: 5.93 µM
- TGI [51]: > 100 µM
- GI50 [26]: 5.65 µM
- TGI [26]: > 100 µM
- GI50 [27]: 2.89 µM
- TGI [27]: 9.13 µM
- GI50 [29]: 2.23 µM
- TGI [29]: 5.57 µM
- GI50 [52]: 3.68 µM
- TGI [52]: > 100 µM
- GI50 [30]: 4.84 µM
- TGI [30]: > 100 µM
- GI50 [31]: 4.14 µM
- TGI [31]: 21.1 µM
- GI50 [32]: 4.1 µM
- TGI [32]: 26.3 µM
- GI50 [33]: 7.51 µM
- TGI [33]: 30.4 µM
- GI50 [34]: 10.6 µM
- TGI [34]: 98.4 µM
- GI50 [35]: 5.21 µM
- TGI [35]: 33.7 µM
- GI50 [36]: 3.07 µM
- TGI [36]: 31.2 µM
- GI50 [37]: 4.71 µM
- TGI [37]: 56.5 µM
- GI50 [53]: 6.14 µM
- TGI [53]: 20.7 µM
- GI50 [39]: 2.82 µM
- TGI [39]: 12 µM
- GI50 [40]: 1.82 µM
- TGI [40]: 7.54 µM
- GI50 [41]: 2.19 µM
- TGI [41]: 7.88 µM
- GI50 [42]: 3.68 µM
- TGI [42]: 13.1 µM
- GI50 [43]: 3.31 µM
- TGI [43]: 11.2 µM
- GI50 [44]: 4.52 µM
- TGI [44]: 16.1 µM
- GI50 [45]: 2.39 µM
- TGI [45]: 4.88 µM
- GI50 [46]: 5.53 µM
- TGI [46]: 18.7 µM
- GI50 [47]: 2.89 µM
- TGI [47]: 11.1 µM
- GI50 [48]: 6.36 µM
- TGI [48]: 68.5 µM
